The IC50 is the midpoint of a concentration-inhibition curve.

This assay addresses T1, ASIC1a (Homo sapiens, UniProt P78348).
T1 sequence (P78348 1-528): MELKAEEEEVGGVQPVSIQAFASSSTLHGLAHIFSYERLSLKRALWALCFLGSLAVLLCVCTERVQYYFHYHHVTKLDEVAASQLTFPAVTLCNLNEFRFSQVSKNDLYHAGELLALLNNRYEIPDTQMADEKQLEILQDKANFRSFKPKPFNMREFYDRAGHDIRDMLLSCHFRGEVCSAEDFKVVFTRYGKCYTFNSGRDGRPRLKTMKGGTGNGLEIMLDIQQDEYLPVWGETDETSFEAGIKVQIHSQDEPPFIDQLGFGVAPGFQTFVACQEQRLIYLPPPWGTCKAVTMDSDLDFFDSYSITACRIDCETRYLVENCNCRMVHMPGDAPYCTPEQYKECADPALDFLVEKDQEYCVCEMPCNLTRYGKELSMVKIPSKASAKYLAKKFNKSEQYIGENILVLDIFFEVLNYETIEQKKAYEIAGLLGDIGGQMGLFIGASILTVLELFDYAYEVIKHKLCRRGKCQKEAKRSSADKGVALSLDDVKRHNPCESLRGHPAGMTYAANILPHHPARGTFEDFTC
Description: Calcium imaging of MES-induced calcium response (FLIPR). The following applies: ASIC1a expressing HEK293 cells, MES-induced calcium response; read-out: IC50 (FLIPR). Type of assay: cell-based. Further details: host or cells: HEK293. How it is done: […] Confluency of cells should be 80-90% on day of plating. Cells are rinsed with 10 ml of PBS and cells are re-suspended by addition of culture medium and trituration with a 25 ml pipette.
The cells are seeded at a density of approximately 1×10^6 cells/ml (100 μl/well) in black-walled, clear bottom, 96-well plates pre-treated with 10 mg/l poly-D-lysin (75 μl/well for ≧30 min). Plated cells are allowed to proliferate for 24 h before loading with dye.
Fluo-4/AM (1 mg, Molecular Probes) is dissolved in 912 μl DMSO. The Fluo-4/AM stock solution (1 mM) is diluted with culture medium to a final concentration of 2 μM (loading solution).
The culture medium is aspirated from the wells, and 50 μl of the Fluo-4/AM loading solution is added to each well. The cells are incubated at 37° C. for 30 min.
Following the second wash, 100 μl modified Assay Buffer is added to each well and the fluorescence is measured in FLIPR™ or FlexStation™ (Molecular Devices, USA), or any other suitable equipment known to the skilled in the art.
Temperature: Room temperature (20-22° C.)
First addition: 50 μl test solution at a rate of 30 μl/sec and a starting height of […]
Second addition: 50 μl MES solution (20 mM, 5 mM final concentration) at a rate of 35 μl/sec and a starting height of 150 μl.
Reading intervals: pre-incubation−10 sec×7 and 3 sec×3 antagonist phase−3 sec×7 and 10 sec×12
Addition plates (compound test plate and MES plate) are placed on the right and left positions in the FLIPR tray, respectively. Cell plates are placed in the middle position and the ASIC1a program is effectuated. FLIPR will then take the appropriate measurements in accordance with the interval settings above. Fluorescence obtained after stimulation is corrected for the mean basal fluorescence (in modified Assay Buffer).
The MES-induced peak calcium response, in the presence of test substance, is expressed relatively to the MES response alone. Test substances that block the MES-induced calcium response are re-tested in triplicates.
As to `CN1CCc2c(-c3ccc(F)c(Cl)c3)cc3c(c2C1)NC(=O)/C3=N\O` [Compound 14], the concentration for half-maximal inhibition (IC50) is less than 10 µM.
Turning to `CN1CCc2c(-c3cccc(O)c3)cc3c(c2C1)NC(=O)/C3=N/O` [Compound 31], the IC50 is greater than 70 µM.
`CN1CCc2c(-c3ccc(S(=O)(=O)N4CCOCC4)cc3)cc3c(c2C1)NC(=O)C3=NO` [Compound 2, 8-methyl-5-[4-(morpholine-4-sulfonyl)-phenyl]-6,7,8,9-tetrahydro-1H-pyrrolo[3,2-h]isoquinoline-2,3-dione 3-oxime]: the IC50 was greater than 70 µM.
Consider `CN1CCc2c(-c3ccccc3Oc3ccccc3)cc3c(c2C1)NC(=O)/C3=N/O` [Compound 44], for which the IC50 was less than 10 µM.
Consider `CC(=O)c1ccc(-c2cc3c(c4c2CCN(C)C4)NC(=O)/C3=N/O)s1` [Compound 26], for which the IC50 is greater than 70 µM.
Take `CN1CCc2c(-c3cccc4c3oc3ccccc34)cc3c(c2C1)NC(=O)/C3=N/O` [Compound 58]: the IC50 was greater than 70 µM.
The result for `O=C(/C=N/O)Nc1ccc(-c2ccccc2)c2ccncc12` [Compound 152] reads greater than 70 µM; that for `CN1CCc2c(-c3cccc([N+](=O)[O-])c3)cc3c(c2C1)NC(=O)/C3=N\O` [Compound 29], greater than 70 µM; that for `CN1CCc2c(-c3cc(F)ccc3F)cc3c(c2C1)NC(=O)/C3=N/O` [Compound 39], less than 10 µM.
In the case of `CO/N=C1/C(=O)Nc2c1cc(-c1ccccc1OC)c1c2CN(C)CC1` [Compound 21], the IC50 fell in the range of 20 to 30 µM.
For the molecule `Cc1cc(-c2cc3c(c4c2CCN(C)C4)NC(=O)/C3=N/O)ccc1F` [Compound 15], the IC50 is less than 10 µM.
As to `CN1CCc2c(-c3cccc(N)c3)cc3c(c2C1)NC(=O)/C3=N/O` [Compound 48], the IC50 was greater than 70 µM.
The result for `CC(C)Oc1cccc(-c2cc3c(c4c2CCN(C)C4)NC(=O)/C3=N\O)c1` [Compound 46] reads 40 to 60 µM; that for `CN1CCc2c(-c3ccc(C(=O)N(C)C)cc3)cc3c(c2C1)NC(=O)C3=NO` [Compound 3, 4-(3-Hydroxyimino-8-methyl-2-oxo-2,3,6,7,8,9-hexahydro-1H-pyrrolo[3,2-h]isoquinolin-5-yl)-N,N-dimethyl-benzamide], greater than 70 µM.
The result for `COc1cccc(-c2cc3c(c4c2CCN(C)C4)NC(=O)/C3=N\O)c1` [Compound 43] reads less than 10 µM; that for `CN1CCc2c(-c3ccoc3)cc3c(c2C1)NC(=O)/C3=N/O` [Compound 69], less than 20 µM; that for `COc1ncccc1-c1cc2c(c3c1CCN(C)C3)NC(=O)/C2=N/O` [Compound 45], less than 10 µM.
The result for `CN1CCc2c(-c3ccc(F)c(F)c3)cc3c(c2C1)NC(=O)/C3=N\O` [Compound 16] reads less than 10 µM; that for `CN1CCc2c(-c3ccc(S(=O)(=O)N4CCN(CCO)CC4)cc3)cc3c(c2C1)NC(=O)C3=NO` [Compound 4, 5-{4-[4-(2-Hydroxy-ethyl)-piperazine-1-sulfonyl]-phenyl}-8-methyl-6,7,8,9-tetrahydro-1H-pyrrolo[3,2-h]isoquinoline-2,3-dione 3-oxime], greater than 70 µM.
Regarding `COc1cc(F)ccc1-c1cc2c(c3c1CCN(C)C3)NC(=O)/C2=N/O` [Compound 42], the IC50 was less than 10 µM.
On to `CN1CCc2c(-c3ccncc3)cc3c(c2C1)NC(=O)/C3=N/O` [Compound 55], for which the IC50 is greater than 70 µM.
Take `CCOc1cccc(-c2cc3c(c4c2CCN(C)C4)NC(=O)/C3=N\O)c1` [Compound 25]: the half-maximal inhibitory concentration (IC50) was in the range of 40 to 60 µM.
On to `CC(=O)c1ccccc1-c1cc2c(c3c1CCN(C)C3)NC(=O)/C2=N/O` [Compound 32], for which the IC50 is greater than 70 µM.
As to `CN1CCc2c(-c3ccc(OC(F)(F)F)cc3)cc3c(c2C1)NC(=O)/C3=N/O` [Compound 54], the IC50 is greater than 70 µM.
In the case of `CN1CCc2c(-c3ccccc3C(F)(F)F)cc3c(c2C1)NC(=O)/C3=N/O` [Compound 18], the half-maximal inhibitory concentration (IC50) was less than 20 µM.
In the case of `CN1CCc2c(-c3ccccc3S(=O)(=O)N(C)C)cc3c(c2C1)NC(=O)/C3=N\O` [Compound 223] it was greater than 70 µM; in that of `CN1CCc2c(-c3cccc(F)c3F)cc3c(c2C1)NC(=O)/C3=N/O` [Compound 68], less than 20 µM.
Turning to `CCOc1ccccc1-c1cc2c(c3c1CCN(C)C3)NC(=O)/C2=N/O` [Compound 37], the IC50 was less than 10 µM.
Regarding `COCCOc1ccccc1-c1cc2c(c3c1CCN(C)C3)NC(=O)/C2=N/O` [Compound 38], the IC50 was less than 10 µM.
The result for `CN1CCc2c(-c3cc(C(F)(F)F)cc(C(F)(F)F)c3)cc3c(c2C1)NC(=O)/C3=N\O` [Compound 23] reads 40 to 60 µM.
In the case of `CN1CCc2c(-c3cccnc3)cc3c(c2C1)NC(=O)/C3=N/O` [Compound 27] it was greater than 70 µM; in that of `COc1c(F)cc(F)cc1-c1cc2c(c3c1CCN(C)C3)NC(=O)/C2=N/O` [Compound 60], greater than 70 µM.
Turning to `CS(=O)(=O)N1CCc2c(-c3ccc(Cl)cc3)cc3c(c2C1)NC(=O)C3=NO` [Compound 71, 5-(4-Chloro-phenyl)-8-methanesulfonyl-6,7,8,9-tetrahydro-1H-pyrrolo[3,2-h]isoquinoline-2,3-dione 3-oxime], the concentration for half-maximal inhibition (IC50) is greater than 70 µM.
Turning to `CN1CCc2c(-c3cc(F)cc(F)c3)cc3c(c2C1)NC(=O)/C3=N\O` [Compound 17], the IC50 was less than 10 µM.
Turning to `CN1CCc2c(-c3cccc(C#N)c3)cc3c(c2C1)NC(=O)/C3=N\O` [Compound 28], the half-maximal inhibitory concentration (IC50) was greater than 70 µM.
On to `O=C1Nc2c(cc(-c3ccccc3)c3c2CCCC3)/C1=N/O` [Compound 114], for which the IC50 was greater than 70 µM.
In the case of `CCOC(=O)N1CCc2c(Br)ccc(NC(=O)CCl)c2C1` [Compound 145] it was greater than 70 µM; in that of `COc1ccccc1-c1cc2c(c3c1CCN(C)C3)NC(=O)/C2=N\O` [Compound 34], less than 10 µM; in that of `CN1CCc2c(-c3ccsc3C=O)cc3c(c2C1)NC(=O)/C3=N/O` [Compound 56], greater than 70 µM.
In the case of `CN1CCc2c(-c3cccc(F)c3)cc3c(c2C1)NC(=O)/C3=N\O` [Compound 36] it was less than 10 µM; in that of `CN1CCc2c(-c3ccccc3OC(F)(F)F)cc3c(c2C1)NC(=O)/C3=N/O` [Compound 53], greater than 70 µM; in that of `CC(=O)c1cccc(-c2cc3c(c4c2CCN(C)C4)NC(=O)/C3=N/O)c1` [Compound 47], greater than 70 µM.
On to `CN1CCc2c(-c3ccccc3F)cc3c(c2C1)NC(=O)/C3=N/O` [Compound 19], for which the IC50 is less than 10 µM.
The result for `CC(=O)N1CCc2c(-c3ccc(Cl)cc3)cc3c(c2C1)NC(=O)C3=NO` [Compound 70, 8-Acetyl-5-(4-chloro-phenyl)-6,7,8,9-tetrahydro-1H-pyrrolo[3,2-h]isoquinoline-2,3-dione 3-oxime] reads greater than 70 µM; that for `CN1CCc2c(-c3ccc(F)cc3F)cc3c(c2C1)NC(=O)/C3=N/O` [Compound 50], greater than 70 µM.
As to `C#CN1C(=O)C(=NO)c2cc(-c3ccccc3)c3c(c21)CN(CC)CC3` [Compound 72, 8-Ethyl-1-ethynyl-5-phenyl-6,7,8,9-tetrahydro-1H-pyrrolo[3,2-h]isoquinoline-2,3-dione 3-oxime], the IC50 is less than 10 µM.
In the case of `Cc1ccccc1-c1cc2c(c3c1CCN(C)C3)NC(=O)/C2=N/O` [Compound 41] it was less than 10 µM; in that of `CN1CCc2c(cccc2-c2ccccc2)C1` [Compound 173], greater than 70 µM.
Regarding `CN1CCc2c(-c3ccccc3)cc3c(c2C1)NC(=O)/C3=N/OC1O[C@H](CO)[C@@H](O)[C@H](O)[C@H]1O` (stereo partly shown) [Compound 59], the IC50 was greater than 70 µM.

The values above are taken from patent US20080004272A1, “Compositions and methods for modulating gated ion channels” (PainCeptor Pharma Corporation, priority 2006, published 2008).
